# Experimental data published in US20100093985A1, “USE OF AT LEAST ONE CYTOSOLIC PHOSPHOLIPASE A2 INHIBITOR AS A MEDICINE FOR SYMPTOMATIC TREATMENT OF MUCOVISCIDOSIS” (INSTITUT PASTEUR, priority 2006, published 2010).
# Tested on: CFTR+/+ and CFTR−/− mice
# Test: Production of mucus in the airways of mice (alcian blue score), with or without LPS from P. aeruginosa
# Type: in vivo, mouse
# Conditions: for Average Score (production of mucus in the airways): D4
# Experimental: The studies were carried out on a cystic fibrosis model established in C57BL/6J mice (Cftr^tmUNC mice) kept on a mixed gene pool by the “Centre de Distribution, de Typage et d'Archivage Animal” UPS44 CNRS in Orléans. Wild-type CFTR^+/+ and mutant CFTR^−/− mice were weaned at 3-4 weeks and fed with food supplemented with a commercial laxative, Movicol®. Without laxative CFTR^−/− mice die rapidly after weaning due to bowel obstructions resulting from a change in the secretion of fluids in the digestive tract.
# The experiments were conducted on groups of at least 5 mice aged 5-7 weeks for each category of treatment.
# The products used were dissolved in an injectable saline solution (or physiological saline) and injected by intratracheal (i.t.) or intraperitoneal (i.p.) route.
# The use protocol was as follows:
# 1) Aspirin (50 mg/kg, i.p.), 30 minutes before LPS, then each day, once a day;
# 2) ATK (20 mg/kg, i.p.), 30 minutes before LPS and 24 hours after.
# The mice were anesthetized with 2% xylazine (8 mg/kg) and ketamine 1000 (40 mg/kg) before the infusion of LPS (330 μg/kg, i.t.).
# Bronchoalveolar lavages (BALs) and lung samplings were carried out 4 days after the infusion of LPS, as indicated below:
# The lungs were infused with 4% formaldehyde to remove the blood and immersed in 4% formaldehyde for 48 hours at 4° C. before being added to paraffin.
# Sections 5 μm thick were stained with hemotoxylin/eosin, periodic acid-Schiff (PAS) and alcian blue (AB; pH 2.4) according to standard methods (Histologie Normale et Pathologique. P. GANTER & G. Jolies, Gauthier-Villars).
# After microscopic examination of the sections stained with alcian blue, which colours the mucus, the positive bronchi and cells were counted. The “number of positive bronchi/number of positive cells” ratio makes it possible to establish the score which serves to evaluate the results of the mucus production studies (see below).
smiles,measurement,setting,value
"CC(=O)Oc1ccccc1C(=O)O [asp, aspirin]",Average Score (production of mucus in the airways),"CFTR+/+ mice, LPS 330 μg/kg i.t. + aspirin 50 mg/kg i.p.",0
same,Average Score (production of mucus in the airways),"CFTR+/+ mice, control (physiological saline, no LPS) + aspirin 50 mg/kg i.p.",0.25
same,secretion of mucus,CFTR−/− mice stimulated by infusion with LPS of Pseudomonas aeruginosa,inhibited
same,Average Score (production of mucus in the airways),"CFTR−/− mice, LPS 330 μg/kg i.t. + aspirin 50 mg/kg i.p.",0
same,Average Score (production of mucus in the airways),"CFTR−/− mice, control (physiological saline, no LPS) + aspirin 50 mg/kg i.p.",0.50
